{"source": "ChEMBL document CHEMBL1201862", "about": "“PubChem BioAssay data set” (2004)", "key": {"[1]": {"experiment": "Shn3 3'UTR reporter signal decrease – cell-based, Clone20 osteoblasts, firefly luciferase, cherry-pick, set 2, Schnurri-3 inhibitor project, dose response (AID 720490)", "assay_type": "functional"}, "[2]": {"experiment": "non-specific 3'UTR reporter inhibition in Clone20-Shn3RL – cell-based, Renilla luciferase, cherry-picked, counter-screen for Shn3 inhibitor project, dose response (AID 624133)", "assay_type": "functional"}, "[3]": {"experiment": "reduction of Shn3 3'UTR-driven luciferase in osteoblasts – cell-based, Clone20 osteoblasts, firefly luciferase, cherry-picked, dose response (AID 624132)", "assay_type": "functional"}, "[4]": {"experiment": "Luminescence Cell-Based Dose Response HTS to Identify Activators of Luciferase Translation or Activity in H4 […] Cells. [Related pubchem assays: 1829 (Project Summary), 1814 (Primary HTS)]", "assay_type": "functional"}, "[5]": {"experiment": "Luminescence Cell-Based Dose Confirmation to Identify Activators of 5'UTR Stem-Loop Driven Alpha-Synuclein mRNA Translation in H4 Neuroglioblastoma Cells. [Related pubchem assays: 1829 (Project Summary), 1814 (Primary HTS)]", "assay_type": "functional"}, "[6]": {"experiment": "Luminescence Cell-Based Dose Response to Identify Activators of 5'UTR Stem-Loop Driven Prion Protein mRNA Translation in H4-C Neuroglioblastoma Cells. [Related pubchem assays: 1829 (Project Summary), 1814 (Primary HTS)]", "assay_type": "functional"}, "[7]": {"experiment": "Luminescence Cell-Based Dose Response to Identify Activators of Luciferase Translation or Activity in H4-C Neuroglioblastoma Cells. [Related pubchem assays: 1829 (Project Summary), 1814 (Primary HTS)]", "assay_type": "functional"}, "cells [8]": {"experiment": "cells"}, "[9]": {"target": "T1, Oxysterols receptor LXR-beta (Homo sapiens, UniProt P55055)", "T1 sequence (P55055 whole entry)": "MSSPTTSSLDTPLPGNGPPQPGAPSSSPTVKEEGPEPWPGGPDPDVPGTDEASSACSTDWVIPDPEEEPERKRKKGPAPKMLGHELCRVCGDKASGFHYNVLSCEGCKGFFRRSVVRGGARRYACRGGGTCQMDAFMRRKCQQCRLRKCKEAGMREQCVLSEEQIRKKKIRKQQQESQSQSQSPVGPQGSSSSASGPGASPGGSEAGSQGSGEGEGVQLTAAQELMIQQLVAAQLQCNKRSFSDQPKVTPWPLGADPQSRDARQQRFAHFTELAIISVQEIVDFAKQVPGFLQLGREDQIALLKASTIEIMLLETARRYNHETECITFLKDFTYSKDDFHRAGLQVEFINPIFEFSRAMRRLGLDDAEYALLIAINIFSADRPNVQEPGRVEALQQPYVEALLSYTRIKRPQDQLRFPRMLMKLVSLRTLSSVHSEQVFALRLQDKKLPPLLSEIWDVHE", "assay_type": "functional, cell-based"}, "[10]": {"target": "Bifunctional protein GlmU (Mycobacterium tuberculosis, UniProt P9WMN3)", "sequence (P9WMN3 whole entry)": "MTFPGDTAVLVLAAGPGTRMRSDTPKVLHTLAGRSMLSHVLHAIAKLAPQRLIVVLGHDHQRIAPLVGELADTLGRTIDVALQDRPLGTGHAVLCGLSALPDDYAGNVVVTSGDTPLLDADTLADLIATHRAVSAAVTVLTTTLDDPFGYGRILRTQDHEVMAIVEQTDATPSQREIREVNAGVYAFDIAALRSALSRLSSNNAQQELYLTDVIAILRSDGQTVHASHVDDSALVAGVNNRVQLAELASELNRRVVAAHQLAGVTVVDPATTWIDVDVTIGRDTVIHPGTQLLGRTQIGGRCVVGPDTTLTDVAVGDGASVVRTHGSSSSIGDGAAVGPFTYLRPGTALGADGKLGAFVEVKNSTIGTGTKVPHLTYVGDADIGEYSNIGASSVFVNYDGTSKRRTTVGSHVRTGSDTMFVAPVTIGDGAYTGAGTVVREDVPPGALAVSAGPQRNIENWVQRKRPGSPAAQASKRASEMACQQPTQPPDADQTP", "experiment": "Inhibitors of Mycobacterial Glucosamine-1-phosphate acetyl transferase (GlmU). Secondary screen.", "parameters": "species or system Mycobacterium tuberculosis H37Rv"}, "Caspase-6": {"target": "T2, Caspase-6 (Homo sapiens, UniProt P55212)", "T2 sequence (P55212 whole entry)": "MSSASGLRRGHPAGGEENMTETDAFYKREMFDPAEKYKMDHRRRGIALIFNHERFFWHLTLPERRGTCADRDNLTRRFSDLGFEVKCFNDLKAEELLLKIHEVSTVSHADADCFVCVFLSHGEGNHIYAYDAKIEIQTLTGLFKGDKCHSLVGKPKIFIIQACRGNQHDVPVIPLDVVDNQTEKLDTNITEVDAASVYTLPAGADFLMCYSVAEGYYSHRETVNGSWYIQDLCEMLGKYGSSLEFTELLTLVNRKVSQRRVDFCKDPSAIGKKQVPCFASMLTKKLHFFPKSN", "experiment": "inhibition of CASP6 peptide cleavage – biochemical, VEID-R110 fluorescence, cherry-pick, dose response (AID 720632)"}, "[11]": {"target": "T3, Carboxy-terminal domain RNA polymerase II polypeptide A small phosphatase 1 (Homo sapiens, UniProt Q9GZU7)", "T3 sequence (Q9GZU7 whole entry)": "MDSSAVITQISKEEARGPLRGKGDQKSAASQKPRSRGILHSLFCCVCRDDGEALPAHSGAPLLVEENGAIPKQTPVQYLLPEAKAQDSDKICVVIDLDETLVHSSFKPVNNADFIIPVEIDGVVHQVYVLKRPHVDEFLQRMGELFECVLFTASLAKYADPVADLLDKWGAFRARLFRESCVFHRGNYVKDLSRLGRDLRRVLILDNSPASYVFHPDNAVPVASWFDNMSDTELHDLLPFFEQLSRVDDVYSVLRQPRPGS", "experiment": "CTDSP1 inhibitors, concentration-response, biochemical, absorbance readout, ultra-high-throughput screen actives (AID 540297)", "assay_type": "functional"}, "[12]": {"target": "Mitogen-activated protein kinase 10 (Homo sapiens, UniProt P53779)", "sequence (P53779 whole entry)": "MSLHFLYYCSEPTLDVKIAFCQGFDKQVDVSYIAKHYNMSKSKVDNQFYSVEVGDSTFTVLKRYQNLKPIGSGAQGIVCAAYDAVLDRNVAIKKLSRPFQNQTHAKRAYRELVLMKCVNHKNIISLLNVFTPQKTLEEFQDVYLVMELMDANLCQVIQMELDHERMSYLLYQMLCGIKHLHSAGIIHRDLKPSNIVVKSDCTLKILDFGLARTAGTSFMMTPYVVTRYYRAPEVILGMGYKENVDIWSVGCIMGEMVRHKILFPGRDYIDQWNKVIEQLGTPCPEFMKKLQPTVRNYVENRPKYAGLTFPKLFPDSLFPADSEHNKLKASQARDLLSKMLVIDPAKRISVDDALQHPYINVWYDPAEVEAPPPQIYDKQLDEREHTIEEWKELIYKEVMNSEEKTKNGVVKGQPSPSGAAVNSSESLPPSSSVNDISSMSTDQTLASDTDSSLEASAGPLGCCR", "experiment": "Dose response biochemical screening assay for inhibitors of c-Jun N-Terminal Kinase 3 (JNK3). [Related pubchem assays: 746 ]"}, "[13]": {"target": "T1, Oxysterols receptor LXR-beta", "experiment": "LXR agonists, Gal4 luciferase reporter, dose response, counter-screen for ssDAF-12 agonist project, cell-based, luminescence, HEK293, S. stercoralis campaign (AID 720737)", "assay_type": "functional", "settings": "read-out: IC50 (the source's name)"}, "[14]": {"experiment": "Luminescence-based cell-based high throughput dose response assay to identify activators of the DAF-12 from the parasite S. stercoralis (ssDAF-12).", "assay_type": "functional"}, "[15]": {"experiment": "Trypanosoma cruzi growth suppression in host cells – NIH3T3 host cells, beta-gal luminescence, confirmation (AID 2044);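 also: luminescent beta-galactosidase reporter signal from transgenic T. cruzi replicating inside host cells; inhibitors lower the luminescence signal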", "assay_type": "functional, cell-based"}, "[16]": {"experiment": "NIH3T3 cell viability loss – ATP luminescence, mouse fibroblasts, counter-screen, dose response (AID 2010);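 also: cells exposed to compound for about 90 hours before reading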", "assay_type": "functional, cell-based"}, "cells [17]": {"experiment": "cells", "remark": "listed apart in the source"}, "[18]": {"experiment": "loss of viability in HepG2 cells – cell-based, CellTiter-Glo, cherry-picked, cytotoxicity control for Shn3 inhibitor project, dose response (AID 624134)", "assay_type": "functional"}, "HEK293": {"tested_on": "HEK293", "experiment": "EBV LMP1 TES2 canonical NF-kB signalling blockers – cell-based, HEK293, luciferase, cherry-pick, dose response (AID 588343)", "assay_type": "functional", "settings": "Homo sapiens"}, "cells [19]": {"experiment": "cells", "settings": "HEK293"}}, "note": "Calls of active or inactive are those of the source."}
{"compound": "CCOC(=O)C1CCCN(S(=O)(=O)c2ccc(S(=O)(=O)N3CCCC3)cc2)C1", "note": "(configuration not stated)", "values": [{"measurement": "AC50", "setting": "[1]", "result": "2.1 µM (active)"}, {"measurement": "AC50", "setting": "[2]", "result": "2.94 µM (active)"}, {"measurement": "AC50", "setting": "[3]", "result": "0.821 µM (active)"}]}
{"compound": "COc1ccc(-c2ccc(-c3nnn(CC(C)=O)n3)cc2)cc1", "values": [{"measurement": "EC50", "setting": "[4]", "result": "< 0.1 µM (inconclusive)"}, {"measurement": "EC50", "setting": "[5]", "result": "0.364 µM (active)"}, {"measurement": "EC50", "setting": "[6]", "result": "0.521 µM (active)"}, {"measurement": "EC50", "setting": "[7]", "result": "0.257 µM (active)"}]}
{"compound": "Cc1occc1C(=O)N=Nc1c(O)n(C)c2ccccc12", "values": [{"measurement": "EC50", "setting": "[4]", "result": "0.526 µM (active)"}, {"measurement": "EC50", "setting": "cells [8]", "result": "> 67.5 µM (inactive)"}, {"measurement": "EC50", "setting": "[9]", "result": "> 67.5 µM (inactive)"}]}
{"compound": "O=C(O)c1ccc(N2C(=O)c3cccc4c(C(=O)O)ccc(c34)C2=O)cc1", "values": [{"measurement": "IC50", "setting": "[10]", "result": "98.9 µM (active)"}, {"measurement": "AC50", "setting": "Caspase-6", "result": "7.17 µM (active)"}, {"measurement": "IC50", "setting": "[11]", "result": "3.53 µM (active)"}]}
{"compound": "O=C(CCn1cnc2ccccc2c1=O)Nc1ccc(S(=O)(=O)N2CCCC2)cc1", "values": [{"measurement": "IC50", "setting": "[12]", "result": "38.2 µM (not active)"}]}
{"compound": "COc1ccc(C(=N)NOC(=O)c2cccs2)cc1", "values": [{"measurement": "EC50", "setting": "[13]", "result": "> 67.6 µM (inactive)"}, {"measurement": "IC50", "setting": "[14]", "result": "> 67.6 µM (inactive)"}]}
{"compound": "Cc1ccc2c(CN3CCN(CCO)CC3)cc(=O)oc2c1C", "values": [{"measurement": "EC50", "setting": "[15]", "result": "< 0.1 µM (active)"}, {"measurement": "EC50", "setting": "[16]", "result": "> 60 µM (not active)"}, {"measurement": "EC50", "setting": "cells [17]", "result": "0.019 µM (active)"}]}
{"compound": "CCc1ccccc1NC(=O)COC(=O)c1c(C)nsc1NC", "values": [{"measurement": "AC50", "setting": "[1]", "result": "2.76 µM (active)"}, {"measurement": "AC50", "setting": "[18]", "result": "64.7 µM (active)"}, {"measurement": "AC50", "setting": "HEK293", "result": "133 µM (active)"}, {"measurement": "AC50", "setting": "[2]", "result": "9.08 µM (active)"}, {"measurement": "AC50", "setting": "[3]", "result": "2.48 µM (active)"}]}
{"compound": "Cn1nc(-c2ccc(Cl)cc2)c2cc(C(=O)N3CCN(c4ccccc4)CC3)sc21", "values": [{"measurement": "AC50", "setting": "cells [19]", "result": "> 52 µM (inactive)"}]}
{"compound": "CC(C)(C)NC(=O)NC(=O)COc1ccc(Br)cc1Br", "values": [{"measurement": "EC50", "setting": "cells [8]", "result": "> 67.5 µM (inactive)"}, {"measurement": "EC50", "setting": "[9]", "result": "> 67.5 µM (inactive)"}]}
